We go through 2 compounds from patent US10144730B2, “Inhibitors of c-Jun-N-terminal kinase (JNK)” (Dana-Farber Cancer Institute, Inc., priority 2011, dated 2018).

The structures appear in SMILES notation. “Also recorded” adds a separate entry of the source.

What is called EC50 is the concentration giving half of the maximal effect. As a reminder, the IC50 is the concentration that gives 50% inhibition.

For assay [1], the system named is c-Jun phosphorylation. Briefly: LanthaScreen TR-FRET cell assay for c-Jun phosphorylation in HeLa cells. The assay is classed as cell-based. The note with it: for EC50: Hela cells, TNF-α stimulation, read-out: p-c-Jun EC50 (nM) Hela. Here is the method:
Phosphorylation was determined by measuring the time resolved FRET (TR-FRET) between a terbium labeled phospho-c-Jun specific antibody and GFP. The cells were plated in white tissue culture treated 384 well plates at a density of 10,000 cell per well in 32 μL assay medium (Opti-MEM®, supplemented with 0.5% charcoal/dextran-treated FBS, 100 U/ml penicillin and 100 μg/ml streptomycin, 0.1 mM nonessential amino acids, 1 mM sodium pyruvate, 25 mM Hepes, pH 7.3, and lacking phenol red). After overnight incubation, cells were pretreated for 90 minutes with compound (at indicated concentration) diluted in 4 μL assay buffer followed by 30 min of stimulation with 5 ng/ml of TNF-α in 4 μL assay buffer (final assay volume was 40 μl). The medium was then removed by aspiration, and the cells were lysed by adding 20 μl of lysis buffer (20 mM Tris-HCl, pH 7.6, 5 mM EDTA, 1% Nonidet P-40 substitute, 5 mM NaF, 150 mM NaCl, and 1:100 protease and phosphatase inhibitor mix, SIGMA P8340 and P2850, respectively). The lysis buffer included 2 nM of the terbium-labeled anti-c-Jun (pSer73) detection antibodies (Life Technologies). After allowing the assay to equilibrate for 60 minutes at room temperature, TR-FRET emission ratios were determined on a BMG Pherastar fluorescence plate reader (BMG Labtech, Cary, N.C.) using the following parameters: excitation at 340 nm; emission at 520 nm and 490 nm; 100 μs lag time; 200 μs integration time; and emission ratio=Em520/Em490. All data were analyzed and plotted using Graphpad Prism 4.
(§1) In parallel with biochemical evaluation, the ability of the compounds to inhibit JNK activity in cells was investigated using two independent assays formats. This is a critical issue because there are several reported JNK inhibitors with nanomolar biochemical potency that translate into micromolar cellular inhibitors. The most well characterized direct phosphorylation substrate of JNK is the transcription factor c-Jun.
On the technique in general: TR-FRET usually uses a lanthanide donor and a delayed reading to cut background.

In assay [2] the test system is c-Jun phosphorylation. Put plainly: High throughput microscopy of c-Jun phosphorylation in A375 cells. The assay is classed as cell-based. The note with it: A375 cells, anisomycin stimulation, read-out: p-c-Jun EC50 (nM) A375. Here is the method: Cells were fixed in 2% paraformaldehyde for 10 min at room temperature and washed with PBS-T (Phosphate Buffered Saline, 0.1% Tween 20). Cells were permeabilized in methanol for 10 min at room temperature, washed with PBS-T, and blocked in Odyssey Blocking Buffer (LI-COR Biosciences) for 1 hour at room temperature. Cells were incubated overnight at 4° C. with antibody specific for Erk1/2(pT202/pY204), Akt(pS473), c-Jun(pS73), pP38(T180/Y182) and pSTAT3(Y705) (Cell Signaling Technology), pRSK1(S380) and pMSK1(S376) (Epitomics), and NF-κB (Santa Cruz Biotechnology) diluted 1:400 in Odyssey Blocking Buffer. […] Cells were washed twice with PBS and imaged in an imageWoRx high-throughput microscope (Applied Precision). Data were plotted using DataPflex.
as §1

Another assay has as its target JNK1 (Homo sapiens, UniProt P45983). The following applies: Table 2, *Literature values; cited from earlier work.
The target of the next assay is JNK2 (Homo sapiens, UniProt P45984). The note with it: Table 2, *Literature values; cited from earlier work.
Sequence of JNK2 (P45984 whole entry): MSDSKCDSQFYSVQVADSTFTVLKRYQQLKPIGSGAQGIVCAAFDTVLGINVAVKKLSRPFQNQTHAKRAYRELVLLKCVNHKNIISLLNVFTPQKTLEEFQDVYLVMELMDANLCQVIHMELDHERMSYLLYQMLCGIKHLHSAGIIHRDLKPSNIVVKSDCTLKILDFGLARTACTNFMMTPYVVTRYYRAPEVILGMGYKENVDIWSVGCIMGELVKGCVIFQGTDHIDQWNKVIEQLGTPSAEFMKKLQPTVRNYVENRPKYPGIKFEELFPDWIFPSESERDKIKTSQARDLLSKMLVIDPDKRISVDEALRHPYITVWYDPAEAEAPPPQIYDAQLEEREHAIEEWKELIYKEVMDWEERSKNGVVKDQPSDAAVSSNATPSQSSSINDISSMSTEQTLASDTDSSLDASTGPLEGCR
The target in a further assay is JNK3 (Homo sapiens, UniProt P53779). Briefly: Biochemical JNK3 kinase inhibition (Z'-lyte format).
Sequence of JNK3 (P53779 whole entry): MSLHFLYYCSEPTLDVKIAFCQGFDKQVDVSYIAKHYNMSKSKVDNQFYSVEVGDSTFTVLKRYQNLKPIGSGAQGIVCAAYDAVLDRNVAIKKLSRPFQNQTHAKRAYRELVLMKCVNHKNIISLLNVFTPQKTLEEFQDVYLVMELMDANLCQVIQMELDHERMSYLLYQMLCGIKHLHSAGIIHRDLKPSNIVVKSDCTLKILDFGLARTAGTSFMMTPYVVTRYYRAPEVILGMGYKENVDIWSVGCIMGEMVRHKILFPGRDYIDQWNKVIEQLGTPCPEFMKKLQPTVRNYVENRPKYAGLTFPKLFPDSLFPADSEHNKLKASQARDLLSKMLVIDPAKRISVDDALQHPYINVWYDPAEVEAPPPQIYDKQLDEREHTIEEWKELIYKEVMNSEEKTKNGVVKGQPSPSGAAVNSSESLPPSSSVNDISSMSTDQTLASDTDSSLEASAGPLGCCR
The subject of the next assay is JNK. Briefly: Binding kinetics (pulse-chase) assay, ATP-biotin labeling of JNK in A375 cells. In kind it is cell-based. The following applies: 1 μM compound. Here is the method: A375 cells were incubated with inhibitors for the indicated amount of time after which cell lysates were prepared and labeled with ATP-biotin. Biotinylated proteins were pulled down with streptavidin beads and material bound to the beads was eluted and separate by SDS-PAGE followed by Western blot analysis for JNK.
A375 cells (ATCC® CRL-1619™) were pre-treated with 1 μM compound for the indicated amounts of time. Remove the medium and wash 3 times with PBS. Resuspend the cell pellet with 1 mL Lysis Buffer (1% NP-40, 1% CHAPS, 25 mM Tris, 150 mM NaCl, Phosphatase Inhibitor Cocktail, Roche 04906845001, and Protease Inhibitor Cocktail Roche 11836170001). Rotate end-to-end for 30 min at 4° C. Lysates were cleared by centrifugation at 14000 rpm for 15 min in the Eppendorf. The cleared lysates gel filtered into Kinase Buffer (0.1% NP-40, 20 mM HEPES, 150 mM NaCl, Phosphatase Inhibitor Cocktail, and Protease Inhibitor Cocktail) using Bio-Rad 10DG colums. The total protein concentration of the gel-filtered lysate should be around 5-15 mg/ml. […]
In order to evaluate the kinetics with which JNK-IN-5 could covalently modify JNK in cells, a pulse-chase assay was developed . […] Streptavidin affinity chromatography is then used to isolate all biotinylated proteins and JNK protein is detected following SDS-PAGE and Western blotting (FIG. 8). […]

Assay [3] relates to 260 kinases in A375 cells. Briefly: KiNativ cellular kinase selectivity profiling in A375 cells. The note with it: 1 μM, 3 hours. The assay is classed as cell-based. As to the method:
FIG. 9 illustrates the cellular kinase selectivity as assessed using the KiNativ™ technology.
The kinase selectivity of several key compounds was first evaluated using a chemical proteomic approach named KiNativ which detects 260 kinases in A375 cells (ActivX Biosciences). To probe the intracellular targets of the compounds, A375 cells were incubated with the inhibitors and then looked for protection of labeling by an ATP-biotin probe that non-specifically labels conserved lysines on kinases and other nucleotide-dependent enzymes. This provided an important advantage relative to the in vitro kinase selectivity profiling because in vitro the short incubation times and presence of reactive thiols in the buffers can potentially cause false negatives for acrylamide-modified kinase inhibitors. […] Since cysteine-directed covalent kinase inhibitors will sometimes cross-react with kinases that contain an equivalently placed cysteine, a sequence alignment was performed to identify all kinases which have a cysteine near JNK1 Cys116 (FIG. 10). […] The dramatic selectivity improvement that results from introduction of this flag-methyl group has been previously reported for imatinib (Zimmermann et al., 1996).

Sequence of JNK1 (P45983 whole entry): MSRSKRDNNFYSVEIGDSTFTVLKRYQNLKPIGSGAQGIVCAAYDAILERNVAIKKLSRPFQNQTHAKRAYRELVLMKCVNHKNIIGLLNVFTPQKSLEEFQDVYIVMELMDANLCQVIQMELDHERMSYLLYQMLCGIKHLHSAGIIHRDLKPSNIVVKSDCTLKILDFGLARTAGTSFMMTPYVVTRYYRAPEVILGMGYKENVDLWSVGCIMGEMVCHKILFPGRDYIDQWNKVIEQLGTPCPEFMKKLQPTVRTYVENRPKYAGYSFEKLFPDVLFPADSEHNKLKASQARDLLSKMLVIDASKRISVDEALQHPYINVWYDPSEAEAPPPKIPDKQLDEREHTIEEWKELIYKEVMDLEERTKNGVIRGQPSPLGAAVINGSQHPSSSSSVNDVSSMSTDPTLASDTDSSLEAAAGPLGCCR

For the compound `N#CC(c1ccnc(NCCc2cccnc2)n1)c1nc2ccccc2s1` (stereo not drawn) [AS601245, reference compound], the “IC50's for c-Jun phosphorylation in both cellular assay formats” value in the assay on c-Jun phosphorylation [1] (HeLa and A375 formats, tested in parallel) is recorded as “micromolar range”. Further, the EC50 in the assay with c-Jun phosphorylation [1] turned out to be 2020 nM; in the assay with c-Jun phosphorylation [2], 2400 nM. The IC50 on JNK1 was 150 nM; on JNK2 it was 220 nM.
For the compound `CCC(=O)Nc1cccc(C(=O)Nc2ccc(Nc3nccc(-c4cccnc4)n3)cc2)c1` [JNK-IN-6], at JNK3 (Table 2), the IC50 was 148 nM. The “fold less potent biochemical IC50” value at JNK3 (on JNK1, 2, and 3, relative to JNK-IN-5) is given as around 100 fold. The EC50 in the assay with c-Jun phosphorylation [1] (Homo sapiens) was found to be 6760 nM; with c-Jun phosphorylation [2] (Homo sapiens, A-375), 1900 nM. The “cellular IC50 fold higher than covalent analog JNK-IN-5” value in the assay with c-Jun phosphorylation [1] (cellular c-Jun phosphorylation, relative to JNK-IN-5) was found to be 50 fold. Moreover, the “protection of JNK from labeling by ATP-biotin” value in the assay on JNK is recorded as “incapable of protecting JNK from labeling by ATP-biotin; also recorded: no protection of JNK labeling”. Besides, the “KiNativ result for JNK after live cell treatment” value in assay [3] is “did not inhibit JNK activity”.
